Experimental data as given in patent publication US10030027B2, “Soluble guanylate cyclase stimulators” (MERCK SHARP & DOHME CORP., priority 2015, dated 2018).

Legend:
sGC α1/β1 heterodimer = sGC α1/β1 heterodimer (Homo sapiens (Human), UniProt Q02108+Q02153); assay: Cell-based sGC functional assay (cyclic GMP assay for sGC activator: CASA assay); details: CHO-K1/sGC cells; for Emax: CHO-K1, activity expressed as percentage of compound A (standard), read-out: % Activation; for EC50: inflection point, 4P fit, read-out: IP
Summary of the method: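 CHO-K1 cells stably expressing human sGC α1/β1 were pre-incubated 30 min at 25° C with or without 1 μM DETA-NO, then exposed to compound for 1 hr at 37° C with 0.5 mM IBMX and 2.5% DMSO final. Intracellular cGMP was measured by HTRF, expressed as % of reference sGC-HDA maximum; inflection point and maximum fold induction came from 4-parameter fits.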

[1] = target: human recombinant sGC enzyme (Homo sapiens (Human), UniProt Q02108+Q02153); assay: Size Exclusion Chromatography (SEC) competition binding assay using [3H] Ex-77B as the radioligand; details: [3H] Ex-77B radioligand, 24 hours at 37° C.
Summary of the method: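 Recombinant human sGC binding measured by competition against tritiated Ex-77B radioligand, with non-specific binding defined by 1 μM unlabeled Ex-77B.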

| Structure (SMILES) | Emax (sGC α1/β1 heterodimer) | EC50 (sGC α1/β1 heterodimer) | Ki [1] |
| --- | --- | --- | --- |
| CC(C)(NC(=O)CCc1ccc([C@]2(C)C(=O)Nc3nc(-c4nn(Cc5ccccc5F)c5ncccc45)nc(N)c32)cc1)C(=O)O [Example 101B, (S)-2-(3-(4-{4-amino-2-[1-(2-fluorobenzyl)-1H-pyrazolo[3,4-b]pyridin-3-yl]-5-methyl-6-oxo-6,7-dihydro-5H-pyrrolo[2,3-d]pyrimidin-5-yl}phenyl)propanamido)-2-methylpropanoic acid] | 111% | 2340 nM | 0.026 nM |
| CC[C@H](NC(=O)CCc1ccc([C@]2(C)C(=O)Nc3nc(-c4nn(Cc5ccccc5F)c5ncccc45)nc(N)c32)cc1)C(=O)O [Example 105B, (5S,2S)-2-(3-(4-{4-amino-2-[1-(2-fluorobenzyl)-1H-pyrazolo[3,4-b]pyridin-3-yl]-5-methyl-6-oxo-6,7-dihydro-5H-pyrrolo[2,3-d]pyrimidin-5-yl}phenyl)propanamido)butanoic acid] | 97% | 2160 nM | 0.042 nM |
| CC(C)(Cc1ccc(C2(C)C(=O)Nc3nc(-c4nn(CCCC(F)(F)F)c5ncccc45)nc(N)c32)cc1)C(=O)O (stereo not drawn) [Example 16B, 3-(4-{4-amino-5-methyl-6-oxo-2-[1-(4,4,4-trifluorobutyl)-1H-pyrazolo[3,4-b]pyridin-3-yl]-6,7-dihydro-5H-pyrrolo[2,3-d]pyrimidin-5-yl}phenyl)-2,2-dimethylpropanoic acid] | 96% | 1470 nM | 1.14 nM |
| CCCCn1nc(-c2nc(N)c3c(n2)NC(=O)C3(C)c2cn(CC(=O)O)nn2)c2ccc(Cl)cc21 (stereo not drawn) [Example 35B, 2-{4-[4-amino-2-(1-butyl-6-chloro-1H-indazol-3-yl)-5-methyl-6-oxo-6,7-dihydro-5H-pyrrolo[2,3-d]pyrimidin-5-yl]-1H-1,2,3-triazol-1-yl}acetic acid] | 102% | 2790 nM | 1.12 nM |

The next compounds have a lower EC50 (sGC α1/β1 heterodimer) than those just listed; values first:

| Emax (sGC α1/β1 heterodimer) | EC50 (sGC α1/β1 heterodimer) | Ki [1] | Structure (SMILES) |
| --- | --- | --- | --- |
| 147% | 201 nM | 0.262 nM | Cc1ccc2c(-c3nc(N)c4c(n3)NC(=O)[C@@]4(C)c3ccc(CCC(=O)O)cc3)nn(Cc3ccc(C)c(F)c3F)c2n1 [Example 25B, (S)-3-(4-{4-amino-2-[1-(2,3-difluoro-4-methylbenzyl)-6-methyl-1H-pyrazolo[3,4-b]pyridin-3-yl]-5-methyl-6-oxo-6,7-dihydro-5H-pyrrolo[2,3-d]pyrimidin-5-yl}phenyl)propanoic acid] |
| 92% | 238 nM | 0.124 nM | CC(C)(Cc1coc(C2(C)C(=O)Nc3nc(-c4nn(Cc5c(F)cccc5F)c5cc(Cl)ccc45)nc(N)c32)n1)C(=O)O (stereo not drawn) [Example 182A, 3-(2-{4-amino-2-[6-chloro-1-(2,6-difluorobenzyl)-1H-indazol-3-yl]-5-methyl-6-oxo-6,7-dihydro-5H-pyrrolo[2,3-d]pyrimidin-5-yl}-1,3-oxazol-4-yl)-2,2-dimethyl-propanoic acid] |
| 131% | 194 nM | 0.124 nM | CC(C)(Cc1csc([C@]2(C)C(=O)Nc3nc(-c4nn(CC5CCCCC5)c5ncccc45)nc(N)c32)n1)C(=O)O (single isomer, unassigned) [Example 151A] |
| 94.9% | 839 nM | 0.123 nM | Cc1ccc(F)c(Cn2nc(-c3nc(N)c4c(n3)NC(=O)C4(C)c3nc(CC(C)(C)C(=O)O)co3)c3ccc(Cl)cc32)c1 (stereo not drawn) [Example 213A, 3-(2-{4-amino-2-[6-chloro-1-(2-fluoro-5-methyl-benzyl)-1H-indazol-3-yl]-5-methyl-6-oxo-6,7-dihydro-5H-pyrrolo[2,3-d]pyrimidin-5-yl} 1,3-oxazol-4-yl)-2,2-dimethyl-propanoic acid] |
| 97.8% | 47 nM | 0.269 nM | CC(C)(CCc1csc(C2(C)C(=O)Nc3nc(-c4nn(Cc5ccccc5F)c5ccccc45)nc(N)c32)n1)C(=O)O (stereo not drawn) [Example 204A, 4-(2-{4-amino-2-[1-(2-fluorobenzyl)-1H-indazol-3-yl]-5-methyl-6-oxo-6,7-dihydro-5H-pyrrolo[2,3-d]pyrimidin-5-yl}-1,3-thiazol-4-yl)-2,2-dimethyl-butanoic acid] |
